From ChEMBL document CHEMBL3414470, “Synthesis and biological evaluation of 4-oxycoumarin derivatives as a new class of antifilarial agents” (Eur J Med Chem, 2015)
≈ marks a conversion by molar mass, not a printed value. Calls of active or inactive are those of the source. No cut-off for these calls is given here.

What was measured:
Brugia malayi [1] = assay: Antifilarial activity against Brugia malayi adult worm assessed as reduction in motility at 8.9 uM after 5 days by MTT dye reduction assay; assay type: functional, organism-based
Brugia malayi [2] = assay: Antifilarial activity against Brugia malayi microfilaria assessed as reduction in motility at 2.17 uM after 5 days by MTT dye reduction assay; assay type: functional, organism-based
Brugia malayi [3] = assay: Antifilarial activity against Brugia malayi adult worm assessed as reduction in motility after 5 days by MTT dye reduction assay; assay type: functional, organism-based
Brugia malayi [4] = assay: Antifilarial activity against Brugia malayi microfilaria assessed as reduction in motility at 1.12 uM after 5 days by MTT dye reduction assay; assay type: functional, organism-based
Vero [5] = assay: (§1) Selectivity index, ratio of CC50 for African green monkey Vero cells to IC50 for Brugia malayi microfilaria; assay type: functional
Brugia malayi [6] = assay: Antifilarial activity against Brugia malayi adult worm assessed as reduction in motility at 1.12 uM after 5 days by MTT dye reduction assay; assay type: functional, organism-based
Brugia malayi [7] = assay: Antifilarial activity against Brugia malayi microfilaria assessed as reduction in motility at 8.9 uM after 5 days by MTT dye reduction assay; assay type: functional, organism-based
Vero [8] = assay: (§2) Selectivity index, ratio of CC50 for African green monkey Vero cells to IC50 for Brugia malayi adult worm; assay type: functional
Brugia malayi [9] = assay: Antifilarial activity against Brugia malayi microfilaria assessed as reduction in motility after 5 days by MTT dye reduction assay; assay type: functional, organism-based
Brugia malayi [10] = assay: Antifilarial activity against Brugia malayi microfilaria assessed as reduction in motility at 4.45 uM after 5 days by MTT dye reduction assay; assay type: functional, organism-based
Brugia malayi [11] = assay: Antifilarial activity against Brugia malayi adult worm assessed as reduction in motility at 2.17 uM after 5 days by MTT dye reduction assay; assay type: functional, organism-based
Brugia malayi [12] = assay: Antifilarial activity against Brugia malayi adult worm assessed as reduction in motility at 4.45 uM after 5 days by MTT dye reduction assay; assay type: functional, organism-based
Brugia malayi [13] = assay: Antifilarial activity against Brugia malayi microfilaria assessed as reduction in motility at 5 uM after 5 days by MTT dye reduction assay; assay type: functional; conditions: 120 h
Brugia malayi [14] = assay: Antifilarial activity against Brugia malayi adult worm assessed as reduction in motility at 5 uM after 5 days by MTT dye reduction assay; assay type: functional; conditions: 120 h
Brugia malayi [15] = assay: Antifilarial activity against Brugia malayi microfilaria assessed as reduction in motility at 10 uM after 5 days by MTT dye reduction assay; assay type: functional, organism-based
Brugia malayi [16] = assay: Antifilarial activity against Brugia malayi adult worm assessed as reduction in motility at 10 uM after 5 days by MTT dye reduction assay; assay type: functional, organism-based
[17] = Cytotoxicity against African green monkey Vero cells after 72 hrs by resazurin dye-based fluorescence assay; assay type: cell-based; conditions: chlorocebus sabaeus, Vero cells
Brugia malayi [18] = assay: Antifilarial activity against Brugia malayi microfilaria assessed as reduction in motility at 1.25 uM after 5 days by MTT dye reduction assay; assay type: functional; conditions: 120 h
Brugia malayi [19] = assay: Antifilarial activity against Brugia malayi adult worm infected in jird model assessed as sterile female at 100 mg/kg, sc after 5 days measured till day 45 relative to control; assay type: functional; conditions: route subcutaneous
Brugia malayi [20] = assay: Antifilarial activity against Brugia malayi adult worm assessed as reduction in motility at 0.625 uM after 5 days by MTT dye reduction assay; assay type: functional; conditions: 120 h
[21] = as §1; assay type: functional
Brugia malayi [22] = assay: Antifilarial activity against Brugia malayi adult worm assessed as reduction in motility at 2.5 uM after 5 days by MTT dye reduction assay; assay type: functional; conditions: 120 h
Brugia malayi [23] = assay: Antifilarial activity against Brugia malayi microfilaria assessed as reduction in motility at 2.5 uM after 5 days by MTT dye reduction assay; assay type: functional; conditions: 120 h
[24] = as §2; assay type: functional
Brugia malayi [25] = assay: Antifilarial activity against Brugia malayi adult worm assessed as reduction in motility at 1.25 uM after 5 days by MTT dye reduction assay; assay type: functional; conditions: 120 h
Brugia malayi [26] = assay: Antifilarial activity against Brugia malayi microfilaria assessed as reduction in motility at 0.625 uM after 5 days by MTT dye reduction assay; assay type: functional; conditions: 120 h
Brugia malayi [27] = assay: Antifilarial activity against Brugia malayi adult worm infected in jird model assessed as adulticidal activity at 100 mg/kg, sc after 5 days measured till day 45 relative to control; assay type: functional; conditions: route subcutaneous
Brugia malayi [28] = assay: Antifilarial activity against Brugia malayi microfilariae infected in jird model assessed as microfilaricidal activity at 100 mg/kg, sc after 5 days measured till day 45 relative to control; assay type: functional; conditions: route subcutaneous
Brugia malayi [29] = assay: Antifilarial activity against Brugia malayi adult worm assessed as reduction in motility at 0.19 uM after 5 days by MTT dye reduction assay; assay type: functional; conditions: 120 h
Brugia malayi [30] = assay: Antifilarial activity against Brugia malayi microfilaria assessed as reduction in motility at 0.19 uM after 5 days by MTT dye reduction assay; assay type: functional; conditions: 120 h
Brugia malayi [31] = assay: Antifilarial activity against Brugia malayi microfilaria assessed as reduction in motility at 0.312 uM after 5 days by MTT dye reduction assay; assay type: functional; conditions: 120 h
Brugia malayi [32] = assay: Antifilarial activity against Brugia malayi adult worm assessed as reduction in motility at 0.312 uM after 5 days by MTT dye reduction assay; assay type: functional; conditions: 120 h

Compound | MIC (Brugia malayi [3]) | MIC (Brugia malayi [9]) | inhibition at 5 µM (Brugia malayi [13]) [%] | inhibition at 5 µM (Brugia malayi [14]) [%] | Activity (Brugia malayi [15]) | Activity (Brugia malayi [16]) | IC50 (Brugia malayi [3]; Brugia malayi, 120 h) [nM] | MIC (Brugia malayi [3]; Brugia malayi, 120 h) [µM] | CC50 at 72 h [17] [nM] | inhibition at 1.25 µM (Brugia malayi [18]) [%] | inhibition at 0.625 µM (Brugia malayi [20]) [%] | Ratio CC50/IC50 [21] | inhibition at 2.5 µM (Brugia malayi [22]) [%] | inhibition at 2.5 µM (Brugia malayi [23]) [%] | Ratio CC50/IC50 [24] | IC50 (Brugia malayi [9]; Brugia malayi, 120 h) [nM] | MIC (Brugia malayi [9]; Brugia malayi, 120 h) [µM] | inhibition at 1.25 µM (Brugia malayi [25]) [%] | inhibition at 0.625 µM (Brugia malayi [26]) [%] | other results
IVERMECTIN | 8.9 µM | 10 µM | – | – | – | – | – | – | – | – | – | – | – | – | – | – | – | – | – | inhibition (Brugia malayi [1]): 61.2%; inhibition (Brugia malayi [2]): 1%; inhibition (Brugia malayi [4]): 50%; Ratio CC50/IC50 (Vero [5]): 13.3; inhibition (Brugia malayi [6]): 17.7%; inhibition (Brugia malayi [7]): 0%; Ratio CC50/IC50 (Vero [8]): 29.5; inhibition (Brugia malayi [10]): 1%; inhibition (Brugia malayi [11]): 21.6%; inhibition (Brugia malayi [12]): 35.3%
O=c1cc(OCC(O)CN2CCOCC2)c2ccccc2o1 (stereo not drawn) | inactive | inactive | 1 | 20.1 | inactive | inactive | – | – | – | – | – | – | – | – | – | – | – | – | – | –
O=c1cc(OCC(O)CNC2CC2)c2ccccc2o1 (stereo not drawn) | – | – | 100 | 97.5 | – | – | 880 | 5 (≈ 1.38 µg/mL) | > 100000 | 75 | 34.3 | >263.15 | 56.4 | 75 | >113.6 | 380 | 2.5 (≈ 0.688 µg/mL) | 43.7 | 75 | Activity (Brugia malayi [19]): 0%; Activity (Brugia malayi [27]): 52.8%; Activity (Brugia malayi [28]): 31.4%
CCCCNCC(O)COc1cc(=O)oc2ccccc12 (stereo not drawn) | – | – | – | – | – | – | 690 | 2.5 (≈ 0.728 µg/mL) | > 100000 | 75 | 48.9 | >232.5 | 84.9 | 100 | >144.9 | 430 | 2.5 (≈ 0.728 µg/mL) | 52.4 | 50 | inhibition at 0.19 µM (Brugia malayi [29]): 8.9%; inhibition at 0.19 µM (Brugia malayi [30]): 1%; inhibition at 0.312 µM (Brugia malayi [31]): 1%; inhibition at 0.312 µM (Brugia malayi [32]): 46.9%
O=C(O)CCCNCC(O)COc1cc(=O)oc2ccccc12 (stereo not drawn) | inactive | inactive | 1 | 17.5 | inactive | inactive | – | – | – | – | – | – | – | – | – | – | – | – | – | –
O=c1cc(OCC(O)CNC2CCCCC2)c2ccccc2o1 (stereo not drawn) | – | – | – | – | – | – | 360 | 2.5 (≈ 0.793 µg/mL) | > 100000 | 100 | 24.2 | >384.6 | 92 | 100 | >277.7 | 260 | 2.5 (≈ 0.793 µg/mL) | 47 | 50 | Activity (Brugia malayi [19]): 0%; inhibition at 0.312 µM (Brugia malayi [31]): 50%; Activity (Brugia malayi [27]): 66.6%; inhibition at 0.312 µM (Brugia malayi [32]): 16.2%; Activity (Brugia malayi [28]): 31.8%
O=c1cc(OCC(O)CN2CCCCC2)c2ccccc2o1 (stereo not drawn) | inactive | inactive | 1 | 23.7 | inactive | inactive | – | – | – | – | – | – | – | – | – | – | – | – | – | –
